Source: patent US20180284132A1, “KITS FOR STRATIFYING SCOLIOTIC SUBJECTS” (CHU SAINTE-JUSTINE, priority 2013, published 2018)

What was measured:
[1] = system: melatonin receptor; assay: Cellular response of osteoblasts to melatonin receptor agonists, cellular dielectric spectroscopy (CDS); assay type: cell-based, human; conditions: for order of agonist potency: response at maximum concentration (10 μM), osteoblasts of control and AIS groups
Procedure: (§1) Data were normalised to maximal response (% maximal response) in cells from control subjects. […] The impedance represented in y-axis as dZiec, indicates the resistance (ohms) of the cells toward the electric current applied by the Cellkey™ apparatus and represents the integrated cellular response. […] Cellular responses shown on the y-axis in (FIG. 3A) to (FIG. 3E) were measured by CDS.
Osteoblasts were isolated from bone specimens obtained intraoperatively from vertebras (varying from T3 to L4 according to the surgical procedure performed) and from other anatomical sites (tibia or femur) in AIS patients and trauma control cases, respectively as previously described (Moreau et al., 2004).
(§2) The functionality of Gi, Gs and Gq proteins was evaluated by CDS assay in osteoblasts, and the functionality of Gi was also evaluated by CDS assay in myoblasts and PBMCs from the same individuals, using CellKey™ apparatus, as previously described (Akoume et al., 2010 and WO 2010/040234, 2010 to Moreau et al.).
The response produced with their maximum concentration (10 μM) in osteoblasts from control subjects and AIS patients of each functional group was compared.

[2] = system: melatonin receptor; conditions: normal osteoblasts; CDS (Akoume et al., 2010); cited from earlier work
[3] = system: response to Gi stimulation; assay: Effect of serine/threonine kinase inhibitors on response to Gi stimulation in osteoblasts (CDS); assay type: cell-based, human; conditions: inhibitor 5 μM, 1 hour before agonist
Procedure: FIG. 13A-FIG. 13B show the effect of various serine/threonine kinase inhibitors on response to Gi stimulation in osteoblasts from control and AIS functional groups. Cells were treated with Protein kinase A (PKA) inhibitor H89 (5 μM), Protein kinase C (PKC) inhibitor Gö6983 (5 μM), Ca^2+/calmodulin-dependent protein kinase (CaMK) (1,2,4) inhibitor STO-609 acetate (5 μM), Ca^2+/calmodulin-dependent protein kinase II (CaMK-2) inhibitor KN93 (5 μM), Casein kinase 1 (CK1) inhibitor D4476 (5 μM) or vehicle for 1 hour prior to stimulation with (FIG. 13A) LPA (10^−6 M) or (FIG. 13B) Somatostatin (10^−6 M). Response to Gi stimulation was measured by CDS. Data were normalised to response in osteoblasts treated with vehicle (% response in presence of vehicle shown on the y-axis and measured by CDS), and are expressed as mean±SE, of n=12 patients in each functional group. * P<0.05, **P<0.01, ***P<0.001, vs control group.
as §2
In order to identify putative serine/threonine kinases phosphorylating Gi isoforms in AIS, control and AIS osteoblasts were treated with a panel of serine/threonine kinase inhibitors prior to their stimulation with two distinct agonists (LPA and somatostatin). Of note, Gi stimulation induced via LPA or somatostatin receptor activation by their agonists in control osteoblasts was not affected by any kinase inhibitor (FIG. 13A-FIG. 13B). […] Cellular response in FG3 osteoblasts was not improved by inhibition of neither of PKC nor CaMK.

[4] = system: beta-adrenergic receptor; assay: Functional status of Gs protein in osteoblasts, isoproterenol challenge (CDS); assay type: cell-based, human
Procedure: as §2

[5] = system: response to Gi stimulation; assay: Effect of Gi and Gs siRNA on response to Gi stimulation in osteoblasts (CDS); assay type: cell-based, human
Procedure: FIG. 12A-FIG. 12H show the differential effects of Gi and Gs siRNA on response to Gi stimulation in AIS functional groups. Osteoblasts from (FIG. 12A) control subjects, (FIG. 12B) FG3, (FIG. 12C) FG2; and (FIG. 12D) FG1 were transfected with Gi1, Gi2, Gi3 or Gs siRNA alone or in combination, or with scrambled siRNA, as indicated in Example 1—Materials and Methods. Efficiency of siRNA was verified with qPCR in each functional group (FIG. 12E to FIG. 12H) 48 hours after transfection, and response to Gi stimulation was measured by CDS and evaluated by challenging cells with Apelin-17, LPA or Somatostatin. Results from a single representative subject for each group are presented. Data were normalised to response in cells transfected with scrambled siRNA (% response shown on the y-axis and measured by CDS), and are expressed as mean±SE, of n=6 patients in each functional group. * P<0.05, **P<0.01, ***P<0.001, vs. control group.
as §2
All Gi1, Gi2, Gi3, Gs and scrambled siRNA were obtained from Ambion (Ambion USA). Osteoblasts from control subjects and AIS patients were transiently transfected in serum-free medium, using Lipofectamine RNAiMAX™ reagent (Invitrogen) according to the manufacturer's instructions and functional experiments were performed 48 h post transfection. The gene knockdown was evaluated by quantitative real-time PCR (qPCR).
Silencing of each gene reduced by 75-85% the expression of the corresponding mRNA in osteoblasts from control and the three AIS groups (FIGS. 12E-H). […] The response to each tested agonist was reduced by at least 75% by silencing Gi3 alone in FG2 osteoblasts (FIG. 12C), and by 90% by silencing Gi1 alone in FG3 osteoblasts ([…]) confirming that the residual response to Gi stimulation is mediated by Gi3 and Gi1 isoforms in FG2 and FG3 groups, respectively. In FG1 osteoblasts, response to each agonist was reduced by 50% following the depletion of all Gi isoforms by siRNA, and was not affected by the knockdown of individual Gi isoforms ([…]).

[6] = system: Gi proteins; assay: Inhibition by GPAnt-2 or pertussis toxin of osteoblast response to Gi-coupled receptor agonists (CDS); assay type: cell-based, human; conditions: for effect on cellular response to melatonin: 16 hours
Procedure: as §1, §2

COc1ccc2[nH]cc(CCNC(C)=O)c2c1 [melatonin]
concentration at which the response reaches a plateau ([1]; osteoblasts, all control and AIS groups): 1 µM
cellular response to melatonin ([1]; osteoblasts, all control and AIS groups, CDS): concentration-dependent increase of response
order of magnitude of the maximum response from highest to lowest ([1]; osteoblasts, control vs AIS functional groups): control group, FG3, FG2 and FG1
order of agonist potency [1]: phenylmelatonin>iodomelatonin>melatonin
G protein dependence of cellular response to melatonin receptor stimulation [2]: mainly Gi-dependent in normal osteoblasts

COc1ccc2[nH]c(-c3ccccc3)c(CCNC(C)=O)c2c1 [phenylmelatonin]
order of agonist potency [1]: phenylmelatonin>iodomelatonin>melatonin

NC(=O)c1ccc(-c2nc(-c3ccc4c(c3)OCCO4)c(-c3ccccn3)[nH]2)cc1 [D4476]
effect on response to Gi stimulation via LPA or somatostatin ([3]; FG1 osteoblasts): increased response
effect on response to Gi stimulation via LPA or somatostatin ([3]; FG3 osteoblasts): increased response

CC(C)NCC(O)c1ccc(O)c(O)c1 (stereo not shown) [isoproterenol]
cellular response, AIS osteoblasts vs control osteoblasts [4]: significantly enhanced

STO-609 acetate
effect on response to Gi stimulation via LPA or somatostatin ([3]; FG1 osteoblasts): significantly increased
effect on response to Gi stimulation via LPA or somatostatin ([3]; FG2 osteoblasts): increased the signalling response
effect on response to Gi stimulation via LPA or somatostatin ([3]; FG3 osteoblasts): not improved

COc1ccc2c(c1)c(C1=C(c3c[nH]c4ccccc34)C(=O)NC1=O)cn2CCCN(C)C [Gö8963, Gö6983]
effect on response to Gi stimulation via LPA or somatostatin ([3]; FG1 osteoblasts): significantly increased
effect on response to Gi stimulation via LPA or somatostatin ([3]; FG2 osteoblasts): devoid of significant effect
effect on response to Gi stimulation via LPA or somatostatin ([3]; FG3 osteoblasts): not improved

O=S(=O)(NCCNC/C=C/c1ccc(Br)cc1)c1cccc2cnccc12 [H89]
effect on response to Gi stimulation via LPA or somatostatin ([3]; FG1 osteoblasts): increased the signalling response
effect on response to Gi stimulation via LPA or somatostatin ([3]; FG2 osteoblasts): increased the signalling response
effect on response to Gi stimulation via LPA or somatostatin ([3]; FG3 osteoblasts): increased the signalling response

Gs siRNA: siRNA from Ambion, ACAACAUGGUCAUCCGGGAGGACAA (SEQ ID NO: 100)
reduction of response to each tested agonist ([5]; FG1 osteoblasts): 50%
reduction of response to each tested agonist ([5]; FG2 osteoblasts): devoid of effect
reduction of response to each tested agonist ([5]; FG3 osteoblasts): devoid of effect
reduction of response to each tested agonist ([5]; control group osteoblasts): devoid of effect

Gi2 siRNA: siRNA from Ambion, GAGGACCUGAAUAAGCGCAAAGACA (SEQ ID NO: 98)
reduction of response to each tested agonist ([5]; control group osteoblasts): not significantly affected

pertussis toxin [PTX]
effect on cellular response to melatonin ([6]; FG1 osteoblasts, maximal concentration): enhanced the response to melatonin
effect on cellular response to melatonin ([6]; FG2 and FG3 osteoblasts, increasing concentration): reduced the cellular response to melatonin
effect on response to mastoparan ([6]; high concentrations, all AIS and control groups): almost abolished
inhibition curve patterns ([6]; response to any of the five synthetic agonists, osteoblasts (GPAnt-2 4 h, PTX 16 h)): curve patterns similar to those obtained with melatonin

COc1ccc2[nH]c(I)c(CCNC(C)=O)c2c1 [iodomelatonin]
order of agonist potency [1]: phenylmelatonin>iodomelatonin>melatonin

COc1ccc(S(=O)(=O)N(CCO)c2ccccc2CN(C)C/C=C/c2ccc(Cl)cc2)cc1 [KN93]
effect on response to Gi stimulation via LPA or somatostatin ([3]; FG1 osteoblasts): unaffected
effect on response to Gi stimulation via LPA or somatostatin ([3]; FG2 osteoblasts): increased the signalling response
effect on response to Gi stimulation via LPA or somatostatin ([3]; FG3 osteoblasts): not improved
